Test results taken from ChEMBL document CHEMBL3886248, “Selective androgen receptor modulators” (2015).

Molecular target: T1, Androgen receptor (Rattus norvegicus, UniProt P15207)
T1 sequence (P15207 whole entry): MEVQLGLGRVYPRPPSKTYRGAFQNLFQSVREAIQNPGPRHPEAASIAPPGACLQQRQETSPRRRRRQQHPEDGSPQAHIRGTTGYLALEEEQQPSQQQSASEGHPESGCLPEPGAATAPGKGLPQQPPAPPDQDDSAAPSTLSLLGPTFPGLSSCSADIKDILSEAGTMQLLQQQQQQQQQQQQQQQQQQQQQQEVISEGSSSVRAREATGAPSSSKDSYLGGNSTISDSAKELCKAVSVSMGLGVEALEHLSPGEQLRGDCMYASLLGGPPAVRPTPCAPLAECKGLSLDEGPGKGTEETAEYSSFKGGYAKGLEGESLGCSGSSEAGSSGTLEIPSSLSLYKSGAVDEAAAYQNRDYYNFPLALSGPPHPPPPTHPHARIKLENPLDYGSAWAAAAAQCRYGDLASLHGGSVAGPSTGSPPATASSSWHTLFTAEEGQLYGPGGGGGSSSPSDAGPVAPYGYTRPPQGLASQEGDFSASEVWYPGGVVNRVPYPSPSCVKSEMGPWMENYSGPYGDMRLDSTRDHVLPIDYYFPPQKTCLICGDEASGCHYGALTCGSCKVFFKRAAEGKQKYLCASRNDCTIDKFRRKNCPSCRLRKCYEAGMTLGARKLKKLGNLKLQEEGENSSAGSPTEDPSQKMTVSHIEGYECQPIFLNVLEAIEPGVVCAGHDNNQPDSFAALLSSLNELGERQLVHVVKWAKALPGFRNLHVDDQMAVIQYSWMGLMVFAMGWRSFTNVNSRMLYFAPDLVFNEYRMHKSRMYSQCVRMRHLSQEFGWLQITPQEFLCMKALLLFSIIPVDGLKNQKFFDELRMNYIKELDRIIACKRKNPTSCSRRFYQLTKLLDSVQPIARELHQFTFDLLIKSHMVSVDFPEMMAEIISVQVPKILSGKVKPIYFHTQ
Assay: The assay was performed as specified by the manufacturer (Invitrogen, Madison, Wis.). Briefly, 1 ul of 10 mM compound was added to 500 ul of AR screening buffer in a 1.5 ml eppendorf tube to make a 2x10E-5M stock. 10-fold serial dilutions of the test compounds were prepared ranging in concentration from 10E-5M to 10E-12M. Each dilution was added in triplicate to a black 384-microtiter plate. The test compounds will be diluted 2-fold in the final reaction. 2x AR-Fluormone complex was prepared with 2 nM Flourmone AL Green and 30 nM AR. 25 ul of 2x complex was aliquoted to each reaction well, such that the final reaction volume was 50 ul per well.

| Compound | IC50 [nM] |
| --- | --- |
| Cc1c(N2C(=O)OC[C@@H]2[C@@H](O)C(F)(F)F)ccc(C#N)c1C(F)(F)F | > 1000 |
| C[C@@H]1OC(=O)N(c2ccc(C#N)c(C(F)(F)F)c2)[C@H]1[C@@H](O)C(F)(F)F | 72 |
| C[C@@H]1OC(=O)N(c2ccc(C#N)c(C(F)(F)F)c2)[C@H]1[C@H](O)C(F)(F)F | 4 |
